Data set [1] has as its system Novozym 188 beta-glucosidase (Aspergillus niger), commercial preparation. Briefly: Glucose tolerance / product inhibition, Novozym 188. Format: biochemical. The protocol:
(§1) For testing glucose tolerance, 5 mM pNPG in NaCltrate buffer pH 4.8 was used as substrate with different glucose amounts added, ranging final glucose concentrations of 0-280 mM. The remaining activity (glucose tolerance) was measured spectrophotometrically by release of pNP at 50° C. reaction conditions, as described earlier. Triple determinations were performed. […] Triple determinations were performed.

Data set [2] concerns Aspergillus saccharolyticus (strain AP, CBS 127449) beta-glucosidases, crude enzyme extract. The data set can be described thus: Glucose tolerance / product inhibition, crude extract of strain AP. Format: biochemical. The protocol:
The fungal strain AP/Aspergillus saccharolyticus was grown on potato dextrose agar (Sigma) for sporulation. Spores were harvested after 7 days of growth by adding sterile water to the plate and scrape on the surface of the culture. The heavy spore suspension was filtered through Myra cloth. Two ml of the spore solution was inoculated into 200 ml seed medium (2.0 g/l wheat bran, 5 g/l corn steep powder, 0.25 g/l yeast extract, 0.75 g/l peptone, 1.4 g/l (NH4)2SO4, 2.0 g/l KH2PO4, 0.4 g/l CaCl2 2H2O, 0.3 g/l MgSO4H2O, 5.0 mg/l FeSO4, 1.6 mg/l MnSO4 7H2O, 1.4 mg/l ZnSO4 7H2O, 2.0 CoCl2 6H2O) in an 500 ml Erlenmeyer flask, and incubated at 30° C. for 2 days, shaking at 160 rpm. Solid state fermentation at approximately 30% TS was carried out adding 100 ml of the cultivated seed medium to 1 l of a solid state fermentation medium comprising of 343 g wheat bran (TS of 87.4%), 9 g corn steep powder, 557 ml Czapek liquid (3 g/l NaNO3, 1 g/l K2HPO4, 0.5 g/l KCl, 0.5 g/l MgSO4 7H2O, 0.01 g/l FeSO4 7H2O) (Samson et al., 2004a). […] The samples were incubated at 30° C. without shaking. After 7 days incubation, liquid was extracted from the medium by pressing the medium by hand using gloves. The extract was centrifuged at 10000 g, and the supernatant filtered through Whatman filter paper.
[…] The remaining activity (glucose tolerance) was measured spectrophotometrically by release of pNP at 50° C. reaction conditions, as described earlier. Triple determinations were performed. […] Triple determinations were performed.

The subject of data set [3] is Cellic CTec beta-glucosidases, commercial preparation. Briefly: Glucose tolerance / product inhibition, Cellic CTec. Format: biochemical. The protocol:
as §1

The target of data set [4] is T1, Aspergillus saccharolyticus CBS 127449 beta-glucosidase BGL1, his-tagged, expressed in T. reesei, SEQ ID NO: 3 (without signal peptide SEQ ID NO: 4) (Aspergillus saccharolyticus, UniProt G0X2F9).
T1 construct: mature form lacks signal peptide 1-19
T1 sequence (G0X2F9 20-860): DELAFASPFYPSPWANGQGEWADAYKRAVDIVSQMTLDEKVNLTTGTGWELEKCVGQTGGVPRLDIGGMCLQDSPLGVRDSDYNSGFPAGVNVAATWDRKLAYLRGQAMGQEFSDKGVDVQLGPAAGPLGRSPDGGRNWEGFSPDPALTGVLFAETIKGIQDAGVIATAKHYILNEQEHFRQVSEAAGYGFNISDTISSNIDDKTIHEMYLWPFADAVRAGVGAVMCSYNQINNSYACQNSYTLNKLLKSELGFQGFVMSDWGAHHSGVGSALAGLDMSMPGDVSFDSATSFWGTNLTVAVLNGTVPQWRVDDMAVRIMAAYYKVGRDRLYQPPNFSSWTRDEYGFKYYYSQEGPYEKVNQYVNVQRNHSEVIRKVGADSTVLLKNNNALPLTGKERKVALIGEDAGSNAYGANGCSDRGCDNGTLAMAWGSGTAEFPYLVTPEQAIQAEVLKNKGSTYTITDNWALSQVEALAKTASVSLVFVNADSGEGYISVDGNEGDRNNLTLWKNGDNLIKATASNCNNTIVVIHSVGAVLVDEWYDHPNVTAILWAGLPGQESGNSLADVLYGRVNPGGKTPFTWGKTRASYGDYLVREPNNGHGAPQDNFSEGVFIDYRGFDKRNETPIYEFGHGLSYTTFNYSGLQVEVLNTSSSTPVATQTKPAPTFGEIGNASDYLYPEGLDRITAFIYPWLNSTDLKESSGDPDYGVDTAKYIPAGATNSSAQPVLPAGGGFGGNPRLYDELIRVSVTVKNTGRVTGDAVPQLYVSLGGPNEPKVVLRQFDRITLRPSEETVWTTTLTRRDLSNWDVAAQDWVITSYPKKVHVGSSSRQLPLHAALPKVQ
The data set can be described thus: Glucose inhibition, purified BGL1. Format: biochemical. The settings on record: pNPG as substrate (5 mM), 50° C., pH 4.8. The protocol:
as §1
The his-tagged beta-glucosidases were purified on the ÄKTApurifier system with UNICORN software, using a HisTrap HP 5 ml […] column (GE Healthcare), run at a flow rate of 5 ml/min. The column was equilibrated with 5CV of binding buffer (20 mM sodium phosphate, 0.5M NaCl, pH 7.4), 100 ml sample was loaded onto the column, followed by washing with binding buffer till the absorbance reached the baseline. The his-tagged beta-glucosidases were eluted with 3CV elution buffer (20 mM sodium phosphate, 0.5M NaCl, 500 mM imidazole, pH 7.4) and the peak (1 CV) collected by monitoring the absorbance.
(§2) Michaelis Menten kinetics, glucose tolerance, termostability, pH optimum, and cellodextrin hydrolysis were carried out as described in EXAMPLE 1.

Substrate in data set [5]: OC[C@H]1O[C@@H](O[C@H]2[C@H](O)[C@@H](O)C(O)O[C@@H]2CO)[C@H](O)[C@@H](O)[C@@H]1O
The data set can be described thus: purified protein, by the assay type. To be noted: other: cellobiose as substrate, 50° C., pH 4.8, Hanes plot.

A short description of data set [6]: Hydrolysis of cellodextrins (cellohexaose). Format: biochemical. To be noted: 50 C, pH 4.8, 30 min time course. Here is the method:
Hydrolysis of cellohexaose was carried out by mixing, in the ratio 1:1, 0.2 mM cellohexaose in 50 mM NaCltrate buffer pH 4.8 and enzyme diluted in 50 mM NaCltrate buffer pH 4.8 to a concentration of 3.7 μg/ml. The reaction was incubated at 50° C. and for a period of 30 min, 100 μl sample was placed on ice every 5 min. 100 μl 200 mM NaOH was added to terminate the reaction, and after another 1 fold dilution with 100 mM NaOH, the samples were analyzed at Dionex ICS3000 using gradient elution: 0-30% eluent B in 26 min followed by 2 min washing with 50% eluent B (0.5 M NaAcetate in 100 mM NaOH) and 5 min re-equilibrating with 100% eluent A (100 mM NaOH).
as §2

Data set [7] is described as follows: Thermostability: remaining beta-glucosidase activity after incubation at different temperatures. Format: physicochemical. Here is the method:
For testing the thermostability of the enzyme extract, aliquots of the extracts were incubated in PCR tubes in a thermocycler with temperature gradient option at 12 different temperatures from 48.5 to 67.0° C. for different time periods (0-4 hours) followed by assaying the activity at 50° C. with 5 mM pNPG in NaCltrate buffer pH 4.8 as substrate. The rate of denaturation, kD, was calculated as the slope of a semi-logaritmic plot of remaining activity vs incubation time. The half life was calculated as: T1/2=ln(2)/kD.
as §2

A short description of data set [8]: pH profile of beta-glucosidase activity on pNPG. Format: biochemical. The settings on record: 50 C. The protocol: For testing the pH optimum of the enzyme extracts, they were assayed at 50° C. with 5 mM pNPG in Citrate Phosphate buffer at different pH ranging from 2.65 to 7.25. Endoglucanase activity of Celluclast 1.5 L was assayed with AZO-CMC as described by the manufacturer (Megazyme), but testing the same pH range 2.65-7.25 as for the pNPG assay.
as §2

The mark [9] stands for this setting: cellobiose as substrate, product and substrate in equal concentrations.
[10] abbreviates: cellobiose as substrate, twice the concentration of glucose compared to cellobiose.
[11] abbreviates: pNPG as substrate, product concentration 12 times higher than the substrate concentration.

Here are results for 3 molecules from US8865448B2, “Aspergillus containing beta-glucosidase, beta-glucosidases and nucleic acids encoding the same” (Cleanvantage LLC, priority 2010, dated 2014).

A value given as a limit tells only on which side of the number the result lay.

On to `OC[C@H]1OC(O)[C@H](O)[C@@H](O)[C@@H]1O` (stereo partly drawn) [glucose], for which the “glucose concentration at half the maximum activity, relative to substrate concentration” value is on record as 12 × the substrate concentration in data set [1] (5 mM pNPG as substrate), 36 × the substrate concentration in data set [2] (5 mM pNPG as substrate) and 23 × the substrate concentration in data set [3] (5 mM pNPG as substrate). The IC50 in data set [1] (5 mM pNPG as substrate, 50° C., pH 4.8, calculated, read-out: glucose concentration at half the maximum activity) was 60 mM. Moreover, the “remaining activity with glucose” value in data set [1] (setting [9]) was “around 80%”; in data set [1] (setting [10]), 50%; in data set [1] (setting [11]), “below 40%”; in data set [2] (setting [9]), “around 80%”; in data set [2] (setting [10]), 50%; in data set [2] (setting [11]), greater than 80%. In data set [3] (setting [11]), the “remaining activity with glucose” value is reported as “approx 75%”. In addition, in data set [4], the “product (glucose) concentration at reduction in activity to 50%” value is on record as 30 times greater than the substrate concentration.

B1: Aspergillus saccharolyticus CBS 127449 beta-glucosidase BGL1, his-tagged, expressed in T. reesei, SEQ ID NO: 3 (without signal peptide SEQ ID NO: 4) … (protein)
chain: T1 sequence (G0X2F9 20-860)
Regarding B1, the Km in data set [5] was 1900 µM.

B2: BGL1: GH family 3 beta-glucosidase of Aspergillus saccharolyticus; his-tagged, expressed in T. reesei and purified for characterisation (protein, listed as Aspergillus saccharolyticus)
chain: T1 sequence (G0X2F9 20-860)
modifications: His tag
notes: GH family 3 beta-glucosidase of Aspergillus saccharolyticus; his-tagged, expressed in T. reesei and purified for characterisation
Take B2: the “mode of action in hydrolysis of cellohexaose” value in data set [6] is on record as “hydrolyzes the different cellodextrins through exohydrolase action”. Further, in data set [7] (60 C), the “activity retained after 2 hours of incubation” value is given as “more than 90%” and the “activity retained after 4 hours of incubation” value was “more than 70%”. The “activity retained after 2 hours of incubation” value in data set [7] (67 C) is listed as “approx. 10%”. Besides, the “stability at 50 C” value in data set [7] (purified BGL1) is given as “stable throughout the incubation period”. For the same molecule, the half-life entry in data set [7] (purified BGL1, from 62 C up to 65 C) is “less than 2.5 hours”. Further, the calculated half-life entry in data set [7] (purified BGL1, temperatures above 60 C) is “approximately 6 hours”. The “stability at temperatures up to 58 C” value in data set [7] (up to four hours of incubation) is “fairly stable”. Moreover, in data set [8], the “activity at basic conditions” value is listed as “below 10%”, the “activity within pH range 3.8-4.8” value is listed as “above 90 % of maximum” and the pH optimum is listed as roughly 4.2 pH.

Usually Km stands for the substrate concentration at which the rate is half of its maximum.
